Marks after values point to notes of the source that are not given here.
Experiments:
THP-1 cells [1] = test: THP-1 copolymer assay: secretion of IFN-γ-regulated chemokines, cytokines, receptors and proteases, Searchlight multiplex analysis; assay type: cell-based, human; conditions: IFN-γ 10 ng/ml, 22-24 hours, 12 samples
THP-1 cells [2] = test: as above; assay type: cell-based, human; conditions: for I-TAC / IP-10 / MIG: IFN-γ 10 ng/ml, 22-24 hours, 12 samples
Method: THP-1 cells (ATCC, TIB-202) were received from the American Type Culture Collection (ATCC). […] Cells were grown in complete growth medium and incubated in a 37° C., 5% CO2 incubator.
Assay medium was prepared fresh the day of the assay. The assay medium consisted of 2 mM Glutamax I Supplement (Invitrogen, 35050-79) in X-VIVO 15 serum-free medium (Cambrex, 04-418Q). These reagents were filtered in a 0.2 micron cellulose acetate filter unit (Nalgene, 156-4020). After filtration, the bottle was covered with foil to protect the medium from light.
COPAXONE® (glatiramer acetate; Teva Pharmaceuticals) was stored in the manufacturer's syringe at 4° C. Samples were prepared at a 2× concentration in the 2×IFN-γ assay medium in sterile, siliconized microfuge tubes. Final concentrations from 0 μg/ml to 400 μg/ml were tested in the assay.
Human IFN-γ (R&D Systems, 285-IF-100) was reconstituted with sterile 0.2% bovine serum albumin (BSA) in phosphate-buffered saline (PBS) (Chemicon, 3225-80).
On the day prior to assay, THP-1 cells were seeded at 2×10^5 cells/ml (20 ml final volume). These cells were harvested by centrifugation at 400×g, 5 min, 18° C. Cells were washed once with assay medium (without IFN-γ) and resuspended in assay medium (without IFN-γ) and counted. THP-1 cells were resuspended at 5×10^5 cells/ml in assay medium (with 0, 1, 10, and 100 ng/ml final concentration of IFN-γ). […] Assay plates were incubated for 0 to 23 hours in a 37° C., 5% CO2 incubator.
Conditioned medium was harvested into non-sterile, siliconized tubes. Tubes were centrifuged at 400×g, 5 min, 4° C. The supernatants were transferred to new, siliconized tubes and flash frozen in liquid nitrogen. Frozen conditioned medium was stored at −80° C. until they were submitted for Searchlight multiplex cytokine analysis (Pierce Endogen, Woburn, Mass.).

[3] = 50 μg/ml COPAXONE and 10 ng/ml IFN-γ, FIG. 1
[4] = 23 hours, GA 2 μg/ml, IFNγ 0 ng/ml
[5] = 23 hours, GA 2 μg/ml, IFNγ 10 ng/ml
[6] = 23 hours, GA 2 μg/ml, IFNγ 100 ng/ml
[7] = 23 hours, GA 2 μg/ml, IFNγ 1000 ng/ml
[8] = 23 hours, GA 10 μg/ml, IFNγ 0 ng/ml
[9] = 23 hours, GA 10 μg/ml, IFNγ 10 ng/ml
[10] = 23 hours, GA 10 μg/ml, IFNγ 100 ng/ml
[11] = 23 hours, GA 10 μg/ml, IFNγ 1000 ng/ml
[12] = IFNγ + 50 μg/ml I356 over IFNγ alone (10 ng/ml)

## glatiramer acetate [COPAXONE®]
THP-1 cells [1]; [GA] 0.78 μg/ml
  MIG: 149.7 pg/mL
THP-1 cells [1]; [GA] 1.56 μg/ml
  MIG: 345.6 pg/mL
THP-1 cells [1]; [GA] 3.13 μg/ml
  MIG: 933.6 pg/mL
THP-1 cells [1]; [GA] 12.5 μg/ml
  IP-10: 782.6 pg/mL
THP-1 cells [1]; [GA] 25 μg/ml
  I-TAC: 247.1 pg/mL
THP-1 cells [1]; [GA] 200 μg/ml
  IP-10: 10899 pg/mL
THP-1 cells [1]; [GA] 400 μg/ml
  MIG: 27574.5 pg/mL
THP-1 cells [2]; [3]
  I-TAC level, fold higher than baseline containing IFN-γ alone: 412 fold
  IP-10 level, fold higher than baseline containing IFN-γ alone: 329 fold
  MIG level, fold higher than baseline containing IFN-γ alone: 573 fold
THP-1 cells [2]; [4]
  I-TAC induction, fold increase over the control (0): 1 fold
  IP-10 induction, fold increase over the control (0): 0 fold
  MIG induction, fold increase over the control (0): 1 fold
THP-1 cells [2]; [5]
  I-TAC induction, fold increase over the control (0): 10 fold
  IP-10 induction, fold increase over the control (0): 72 fold
  MIG induction, fold increase over the control (0): 21 fold
THP-1 cells [2]; [6]
  I-TAC induction, fold increase over the control (0): 46 fold
  IP-10 induction, fold increase over the control (0): 49 fold
  MIG induction, fold increase over the control (0): 39 fold
THP-1 cells [2]; [7]
  I-TAC induction, fold increase over the control (0): 23 fold
  IP-10 induction, fold increase over the control (0): 13 fold
  MIG induction, fold increase over the control (0): 23 fold
THP-1 cells [2]; [8]
  I-TAC induction, fold increase over the control (0): 4 fold
  IP-10 induction, fold increase over the control (0): 0 fold
  MIG induction, fold increase over the control (0): 1 fold
THP-1 cells [2]; [9]
  I-TAC induction, fold increase over the control (0): 51 fold
  IP-10 induction, fold increase over the control (0): 233 fold
  MIG induction, fold increase over the control (0): 284 fold
THP-1 cells [2]; [10]
  I-TAC induction, fold increase over the control (0): 113 fold
  IP-10 induction, fold increase over the control (0): 67 fold
  MIG induction, fold increase over the control (0): 333 fold
THP-1 cells [2]; [11]
  I-TAC induction, fold increase over the control (0): 49 fold
  IP-10 induction, fold increase over the control (0): 14 fold
  MIG induction, fold increase over the control (0): 160 fold
THP-1 cells [2]; 23 hours, IP-10, I-TAC, MIG
  IFN-γ concentration at which fold-induction over baseline is maximal: 1 to 10 ng/mL
THP-1 cells [2]; COPAXONE alone, no IFN-γ
  IP-10 production in the absence of IFN-γ: do not produce any significant amount
THP-1 cells [2]; COPAXONE and the higher IFN-γ concentrations
  Earliest time at which lower levels of IP-10, I-TAC and MIG can be detected: 3 to 6 h
THP-1 cells [2]; COPAXONE in combination with IFN-γ
  Effect on secretion of IP-10, I-TAC and MIG: striking, concentration-dependent effect
THP-1 cells [2]; IFNγ 10 ng/ml + 50 μg/ml I356
  I309 secretion: 15.6* pg/ml
  ICAM1 secretion: 279.9* pg/ml
  IL1β secretion: 0.5* pg/ml
  IL12p70 secretion: 8.9* pg/ml
  IL-6 secretion: 3.8* pg/ml
  IL-8 secretion: 217.1* pg/ml
  IL-10 secretion: 0.7* pg/ml
  IP10 secretion: 4060.5* pg/ml
  MCP1 secretion: 688.2* pg/ml
  MDC secretion: 23.6* pg/ml
  MIP1α secretion: 73.9* pg/ml
  MMP2 secretion: 915.9* pg/ml
  MMP9 secretion: 8.9* pg/ml
  RANTES secretion: 352.2* pg/ml
  TARC secretion: 35.2* pg/ml
  TIMP1 secretion: 6364.3* pg/ml
  TNFR1 secretion: 35.8* pg/ml
  TNFR2 secretion: 34.4* pg/ml
  TNFα secretion: 61.3* pg/ml
THP-1 cells [2]; IFNγ 10 ng/ml + 50 μg/ml I356, 24 hr
  IFNγ level in culture medium: 4575.9* pg/ml
THP-1 cells [2]; [12]
  I309 Fold-increase: 9.7 fold
  ICAM1 Fold-increase: 6.0 fold
  IFNγ Fold-increase: 9.7 fold
  IL1β Fold-increase: 2.4 fold
  IL12p70 Fold-increase: 1.9 fold
  IL-6 Fold-increase: 19.0 fold
  IL-8 Fold-increase: 8.5 fold
  IL-10 Fold-increase: 2.0 fold
  IP10 Fold-increase: 226.3 fold
  MCP1 Fold-increase: 21.3 fold
  MDC Fold-increase: 10.6 fold
  MIP1α Fold-increase: 7.1 fold
  MMP2 Fold-increase: 5.8 fold
  MMP9 Fold-increase: 0.2 fold
  RANTES Fold-increase: 3.6 fold
  TARC Fold-increase: 3.0 fold
  TIMP1 Fold-increase: 1.7 fold
  TNFR1 Fold-increase: 5.2 fold
  TNFR2 Fold-increase: 3.1 fold
  TNFα Fold-increase: 1.8 fold
THP-1 cells [2]; X-VIVO15 serum-free defined medium compared with FBS media
  Fold induction over baseline by culture medium: highest fold induction over baseline
THP-1 cells [2]; [GA] 0.78 μg/ml
  I-TAC: 16.5 pg/mL
  IP-10: 259.2 pg/mL
THP-1 cells [2]; [GA] 1.56 μg/ml
  I-TAC: 42.1 pg/mL
  IP-10: 483.7 pg/mL
THP-1 cells [2]; [GA] 3.13 μg/ml
  I-TAC: 82.6 pg/mL
  IP-10: 580.8 pg/mL
THP-1 cells [2]; [GA] 6.25 μg/ml
  I-TAC: 105.9 pg/mL
  IP-10: 581.4 pg/mL
  MIG: 2704.5 pg/mL
THP-1 cells [2]; [GA] 12.5 μg/ml
  I-TAC: 179.2 pg/mL
  MIG: 3608 pg/mL
THP-1 cells [2]; [GA] 25 μg/ml
  IP-10: 829 pg/mL
  MIG: 4480.6 pg/mL
THP-1 cells [2]; [GA] 50 μg/ml
  I-TAC: 532.6 pg/mL
  IP-10: 2150.8 pg/mL
  MIG: 13771.2 pg/mL
THP-1 cells [2]; [GA] 100 μg/ml
  I-TAC: 2444 pg/mL
  IP-10: 12865.1 pg/mL
  MIG: 45353.3 pg/mL
THP-1 cells [2]; [GA] 200 μg/ml
  I-TAC: 2091.2 pg/mL
  MIG: 37897.5 pg/mL
THP-1 cells [2]; [GA] 400 μg/ml
  I-TAC: 1560.5 pg/mL
  IP-10: 6111.3 pg/mL
THP-1 cells [2]; measured at 24 hours
  IFN-γ levels with COPAXONE treatment: concentration-dependent increase
THP-1 cells [2]; various concentrations of FBS or X-VIVO15 serum-free medium
  Secretion of IP-10, MIG, I-TAC and IFN-γ in all medium conditions: robust secretion

From patent US8753833B2, “Copolymer assay” (Momenta Pharmaceuticals, Inc., priority 2007, dated 2014)
